The text below walks through data of patent US20190212340A1, “AN ELISA-LIKE ASSAY FOR QUANTIFYING ENZYMATIC ACTIVITIES OF MONO-ADP-RIBOSYLTRANSFERASES” (University of Southern California, priority 2016, published 2019).

Test [1] concerns the target T1, PARP15 (Homo sapiens, UniProt Q460N3).
T1 construct: The catalytic domains of PARP15 (residue 481-678); His6 (N); Factor Xa cleavage site (IEGR) (N); made in house; host or cells: E. coli BL21 (DE3)
T1 sequence (Q460N3 with tags, fused parts or gaps): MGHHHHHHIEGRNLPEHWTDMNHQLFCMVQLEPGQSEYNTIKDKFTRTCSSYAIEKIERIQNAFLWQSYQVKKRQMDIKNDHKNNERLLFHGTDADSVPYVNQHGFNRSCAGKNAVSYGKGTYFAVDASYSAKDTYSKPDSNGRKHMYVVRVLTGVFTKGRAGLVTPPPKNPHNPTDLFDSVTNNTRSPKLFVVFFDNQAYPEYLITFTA
Briefly: MLISA inhibition of PARP15-catalyzed automodification (Experiment No. 2). The format is biochemical. As to conditions: at concentrations up to 100 μM.

Test [2] deals with T1, PARP15. Briefly: M2-based ELISA plate inhibition assay, PARP15 (Experiment No. 1). The format is biochemical. As to conditions: 500 nM PARP15, 500 μM NAD+, inhibitors at 1, 10 and 100 μM, 2 h. The procedure: The general scheme of ELISA assay is illustrated in FIG. 1. PARP automodification reactions (100 μL) were conducted in 96-wells plate together with the coating process for 2 hours at room temperature. After five times of 200 μL PBST washes (0.1% v/v Tween 20 in PBS buffer, pH 7.4) per well the plates were blocked with 3% BSA dissolved in PBS buffer for 2 hours under room temperature followed by five washes of 200 μL PBST per well. The plates were incubated for 1 hour upon addition of 100 μL of 0.1 μM Macrodomain 2 and then washed five times with 200 μL PBST per well. […] The fluorescence signal was developed by addition of 75 μL QuantaBlu Fluorogenic Peroxidase Substrate and recorded by Synergy H1 Multi-Mode Reader (BioTek, VT). Kinetic parameters were calculated using nonlinear regression Michaelis-Menten model using GraphPad Prism (GraphPad Software). […]
96-well ELISA plates were coated with reactions in triplicates consisting of PARP enzymes (PARP14: 1 μM; PARP15: 500 nM) with various inhibitors at different concentrations (1, 10 and 100 μM) in addition to 500 μM of NAD^+ in Reaction Buffer (50 mM Tris-HCl, pH 7.4, 2 mM dTT). […] To control for any potential inhibition activity related to DMSO, wells containing 1% DMSO were analyzed in triplicates alongside with no inhibitor control wells and 100 μM control inhibitor wells.

For test [3], the target named is T2, PARP15 (Homo sapiens, UniProt Q460N3).
T2 sequence (Q460N3 1-678): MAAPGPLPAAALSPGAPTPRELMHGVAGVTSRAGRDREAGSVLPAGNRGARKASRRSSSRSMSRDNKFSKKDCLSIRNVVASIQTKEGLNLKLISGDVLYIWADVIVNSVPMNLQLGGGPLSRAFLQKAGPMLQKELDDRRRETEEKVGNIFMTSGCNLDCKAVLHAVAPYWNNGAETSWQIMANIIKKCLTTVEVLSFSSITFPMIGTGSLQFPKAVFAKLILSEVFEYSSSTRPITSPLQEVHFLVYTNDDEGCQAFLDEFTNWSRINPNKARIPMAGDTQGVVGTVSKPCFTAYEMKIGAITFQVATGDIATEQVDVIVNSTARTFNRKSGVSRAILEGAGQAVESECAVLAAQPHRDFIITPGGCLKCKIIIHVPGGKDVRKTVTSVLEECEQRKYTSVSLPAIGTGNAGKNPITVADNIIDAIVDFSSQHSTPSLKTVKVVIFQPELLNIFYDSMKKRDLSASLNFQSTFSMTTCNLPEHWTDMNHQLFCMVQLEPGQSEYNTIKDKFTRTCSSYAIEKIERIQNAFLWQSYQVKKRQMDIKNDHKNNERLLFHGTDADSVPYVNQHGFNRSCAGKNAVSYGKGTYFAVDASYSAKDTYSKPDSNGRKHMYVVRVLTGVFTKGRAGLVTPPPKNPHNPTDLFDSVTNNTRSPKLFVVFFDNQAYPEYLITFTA
As to conditions: Karlberg et al., J. Biol. Chem. 2015; read-out: Km value of PARP15 reported previously; cited from earlier work.

Take `Nc1ncnc2[nH]cnc12` [Adenine]: the “inhibition effects on PARP15 activity” value at PARP15 [1] is “no significant inhibition effects”.

With `CN(C)c1ccc(O)c2c1C[C@H]1C[C@H]3[C@H](N(C)C)C(O)=C(C(N)=O)C(=O)[C@@]3(O)C(O)=C1C2=O` [Minocin], the “inhibition effects on PARP15 activity” value against PARP15 [1] is recorded as “no significant inhibition effects”. Regarding `O=C(c1cc(Cc2n[nH]c(=O)c3ccccc23)ccc1F)N1CCN(C(=O)C2CC2)CC1` [Olaparib], on PARP15 [2], the “inhibition of PARP15 (fluorescence intensity)” value is reported as “better inhibitory effect at 100 μM but it is less potent comparing to other inhibitor”. Take `NC(=O)c1ccc[n+]([C@@H]2O[C@H](COP(=O)([O-])OP(=O)(O)OC[C@H]3O[C@@H](n4cnc5c(N)ncnc54)[C@H](O)[C@@H]3O)[C@@H](O)[C@H]2O)c1` [NAD^+, Nicotinamide adenine dinucleotide]: the Km (in general, the concentration of substrate that gives half-maximal velocity) at PARP15 [3] was 5.8 ± 1.9 µM.

Regarding `O=c1[nH]c(-c2ccc(C(F)(F)F)cc2)nc2c1CSCC2` [XAV939], the “inhibition effects on PARP15 activity” value against PARP15 [1] is reported as “no significant inhibition effects”.
